In article PMC4754833, “Rilpivirine analogs potently inhibit drug-resistant HIV-1 mutants” (Retrovirology, 2016):

Tests used:
[1] = tested on: WT HIV-1; conditions: previous study; cited from earlier work
[2] = tested on: HIV-1 RT mutant K101E/M184I; assay: single round infection assay, K101E/M184I; format: cell-based; conditions: for fold-change of IC50 of the mutant relative to WT: K101E/M184I vs WT; for IC50: ± SD, n=4
Protocol: (§1) The human osteosarcoma cell line, HOS, was obtained from Dr. Richard Schwartz (Michigan State University, East Lansing, MI) and grown in Dulbecco’s modified Eagle’s medium (Invitrogen, Carlsbad, CA) supplemented with 5 % (v/v) fetal bovine serum, 5 % newborn calf serum, and penicillin (50 units/ml) plus streptomycin (50 µg/ml; Quality Biological, Gaithersburg, MD). Virion production and single-round infectivity assays were used to determine antiviral activity (IC50 values) of the compounds as previously described.
(§2) pNLNgoMIVR-ΔEnv.LUC has been described previously. The RT open reading frame was removed from pNLNgoMIVR-ΔEnv.LUC (digestion with SpeI and SalI) and inserted between the SpeI and SalI sites of pBluescript II KS+. Using that construct as the wild-type template, we prepared the following HIV-1 RT mutants using the QuikChange II XL (Stratagene, La Jolla, CA) site-directed mutagenesis protocol kit: L100I, K103N, Y181C, Y188L, H221Y, K103N/Y181C, G190A, G190S, M230L, P236L, L100I/K103N, K103N/P225H, V106A/G190A/F227L, V106A, L234I, V106A/F227L, V106A/L234I, V106A/F227L/L234I, E40K, D67E, K101E, V111A, E138K, M184I, M184V, K101E/M184I, K101E/M184V, E138K/M184I, E138K/M184V, K101P, Y181I, and K101P/V179I. The following sense oligonucleotides were used with matching cognate antisense oligonucleotides (not shown) (Integrated DNA Technologies, Coralville, IA) in the mutagenesis: L100I, 5′-[…]-3′; L100I 2-103, 5′-[…]-3′; K103N, 5′-[…]-3′; Y181C, 5′-[…]-3′; Y188L, 5′-[…]-3′; H221Y, 5′-[…]-3′; G190A, 5′-[…]-3′; G190S, 5′-[…]-3′; P225H, 5′-[…]-3′; F227, 5′-[…]-3′; M230L, 5′-[…]-3′; P236L, 5′-[…]-3′; V106A, 5′-[…]-3′; L234I, 5′-[…]-3′; E40K, 5′-[…]-3′; D67E, 5′-[…]-3′; K101E, 5′-[…]-3′; V111A, 5′-[…]-3′; E138K, 5′-[…]-3′; M184I, 5′-[…]-3′; M184V, 5′-[…]-3′; K101P, 5′-[…]-3′; Y181I, 5′-[…]-3′; K101P/V179I, 5′-[…]-3′. The double mutants K103N/Y181C, K103N/P225H, and L100I/K103N were made using the previously generated K103N mutant and the appropriate oligonucleotides to add the second mutation, Y181C, P225, and L100I respectively. The double mutants V106A/F227L and V106A/L234I were prepared using the previously generated V106A mutant and the appropriate oligonucleotides to add the second mutation, F227L and L234I, respectively. The double mutants K101E/M184I and K101E/M184V were constructed using the previously generated K101E mutant and the appropriate oligonucleotides to add the second mutation, M184I and M184V, respectively. The double mutants E138K/M184I and E138K/M184V were constructed using the previously generated E138K mutant and the appropriate oligonucleotides for the second mutation, M184I and M184V, respectively. The triple mutant V106A/F227L/L234I was made using the previously generated V106A/F227L double mutant and the appropriate oligonucleotides for the third mutation, L234I. The triple mutant V106A/G190A/F227L was constructed in a series of steps using the previously generated V106A mutant and the appropriate oligonucleotides for the second mutation, G190A, to generate the double mutant V106A/G190A, and then the triple mutant was made using double mutant V106A/G190A and oligonucleotides for the third mutation, F227L. The DNA sequence of each construct was verified by DNA sequence determination. The sequences encoding the mutant RTs were then subcloned into pNLNgoMIVR-ΔEnv.LUC (between the KpnI and SalI sites) to produce the mutant HIV-1 constructs. These DNA sequences were also checked independently by DNA sequence determination.
(§3) 10.1186/s12977-016-0244-2 The IC50 values (nM) of RPV and the RPV analogs were determined against the NNRTI resistant mutants were measured by using a single round infection assay, n = 4. The concentrations (nM) are measured by reductions in luciferase reporter activity followed by the standard deviations. […]

[3] = tested on: HIV-1 RT mutant V106A/F227L; assay: single round infection assay, V106A/F227L; format: cell-based; conditions: for fold-change of IC50 of the mutant relative to WT: V106A/F227L vs WT; for IC50: ± SD, n=4
Protocol: as §1, §2, §3

[4] = tested on: HIV-1 RT mutant L100I; parameters: method as in PMID 23217210; conditions: previous study; cited from earlier work
[5] = tested on: HIV-1 RT mutant E138K/M184I; assay: single round infection assay, E138K/M184I; format: cell-based; conditions: for fold-change of IC50 of the mutant relative to WT: E138K/M184I vs WT; for IC50: ± SD, n=4
Protocol: as §1, §2, §3

[6] = tested on: HIV-1 RT mutant L100I/K103N; assay: single round infection assay, L100I/K103N; format: cell-based; conditions: for fold-change of IC50 of the mutant relative to WT: L100I/K103N vs WT; for IC50: ± SD, n=4, limit of detection 100 nM
Protocol: as §1, §2, §3

[7] = tested on: HIV-1 RT mutant E138K; assay: single round infection assay, E138K; format: cell-based; conditions: for fold-change of IC50 of the mutant relative to WT: E138K vs WT; for IC50: ± SD, n=4
Protocol: as §1, §2, §3

[8] = tested on: HIV-1 RT mutant K103N/P225H; assay: single round infection assay, K103N/P225H; format: cell-based; conditions: for IC50: Human immunodeficiency virus 1; for fold-change of IC50 of the mutant relative to WT: K103N/P225H vs WT
Protocol: as §1, §2, §3

[9] = tested on: HIV-1 RT mutant K101P/V179I; assay: single round infection assay, K101P/V179I; format: cell-based; conditions: for IC50: Human immunodeficiency virus 1; for fold-change of IC50 of the mutant relative to WT: K101P/V179I vs WT
Protocol: as §1, §2, §3

[10] = tested on: HIV-1 RT mutant V106A/G190A/F227L; assay: single round infection assay, V106A/G190A/F227L; format: cell-based; conditions: for IC50: Human immunodeficiency virus 1; for fold-change of IC50 of the mutant relative to WT: V106A/G190A/F227L vs WT
Protocol: as §1, §2, §3

[11] = tested on: HIV-1 RT mutant Y181I; assay: single round infection assay, Y181I; format: cell-based; conditions: for IC50: Human immunodeficiency virus 1; for fold-change of IC50 of the mutant relative to WT: Y181I vs WT
Protocol: as §1, §2, §3

[12] = tested on: HIV-1 RT mutant G190S; assay: single round infection assay, G190S; format: cell-based; conditions: Human immunodeficiency virus 1
Protocol: as §1, §2, §3

[13] = tested on: HIV-1 RT mutant G190A; assay: single round infection assay, G190A; format: cell-based; conditions: for IC50: Human immunodeficiency virus 1
Protocol: as §1, §2, §3

[14] = tested on: HIV-1 RT mutant K103N; parameters: method as in PMID 23217210; conditions: previous study; cited from earlier work
[15] = Human immunodeficiency virus 1, E138K
[16] = Human immunodeficiency virus 1, K101E/M184I
[17] = Human immunodeficiency virus 1, E138K/M184I
[18] = Human immunodeficiency virus 1, V106A/F227L (selected by DOR)
[19] = Human immunodeficiency virus 1, L100I/K103N

| SMILES | IC50 [1] [nM] | fold-change of IC50 of the mutant relative to WT [2] | fold-change of IC50 of the mutant relative to WT [3] | IC50 [4] [nM] | fold-change of IC50 of the mutant relative to WT [5] | fold-change of IC50 of the mutant relative to WT [6] | fold-change of IC50 of the mutant relative to WT [7] | IC50 [8] [nM] | fold-change of IC50 of the mutant relative to WT [8] | IC50 [9] [nM] | fold-change of IC50 of the mutant relative to WT [9] | IC50 [10] [nM] | fold-change of IC50 of the mutant relative to WT [10] | IC50 [11] [nM] | fold-change of IC50 of the mutant relative to WT [11] | IC50 [12] [nM] | IC50 [13] [nM] | IC50 [14] [nM] | IC50 ([7]; E138K) [nM] | IC50 [7, 15] [nM] | further results |
| --- | --- | --- | --- | --- | --- | --- | --- | --- | --- | --- | --- | --- | --- | --- | --- | --- | --- | --- | --- | --- | --- |
| Cc1cc(/C=C/C#N)cc(C)c1Nc1ccnc(Nc2ccc(C#N)cc2)n1 [RPV, rilpivirine] | < 7 | 3 | 3 | < 7 | 5 | 10 | 4 | 0.6 ± 0.2 | 3 | 93.5 ± 12.1 | 390 | 0.5 ± 0.02 | 2 | 8.8 | 37 | 0.11 ± 0.01 | 0.4 ± 0.08 | < 7 |  |  | fold-change of IC50 of the mutant relative to WT ([13]; G190A vs WT): < 2 |
| Cc1cc(/C=C/C#N)cc(C)c1Nc1nc(Nc2ccc(C#N)cc2)ncc1[N+](=O)[O-] [compound 6] | < 7 | < 2 | 4 | < 7 | 2 | 4 | 3 | 0.8 ± 0.06 | < 2 | 12.6 | 25 | 1.1 ± 0.2 | 2 | 55.3 | 110 | 0.2 ± 0.09 | 0.2 ± 0.09 | < 7 | 1.4 ± 0.3 | < 2.5 |  |
| Cc1cc(/C=C/C#N)cc(C)c1Nc1nc(Nc2ccc(C#N)cc2)ncc1N [compound 7] | < 7 | < 2 | < 2 | < 7 | 4 | 2 | 2 | 1.1 ± 0.25 | < 2 | 81.4 ± 8.1 | 104 | 1.4 ± 0.4 | < 2 | 19 | 24 | 0.4 ± 0.07 | 0.3 | < 7 | 1.6 ± 0.07 | < 2.5 | IC50 [2, 16]: < 2.5 nM; IC50 ([2]; K101E/M184I): 1.3 ± 0.6 nM; IC50 ([5]; E138K/M184I): 2.9 ± 0.6 nM; IC50 [5, 17]: < 2.5 nM |
| Cc1cc(/C=C/C#N)cc(C)c1Nc1ncc([N+](=O)[O-])c(Nc2ccc(C#N)cc2)n1 [compound 8] | < 7 | 4 | 4 | < 7 | < 2 | 3 | 2 | 1.2 ± 0.33 |  | 29.8 ± 5.4 | 19 | 2.8 ± 0.42 | < 2 | 74.8 | 47 | 0.17 ± 0.02 | 0.24 ± 0.04 | < 7 | 3.4 | < 6 | IC50 [2, 16]: < 6 nM; IC50 ([2]; K101E/M184I): 6 ± 1.6 nM; IC50 [3, 18]: < 5 nM; IC50 ([3]; V106A/F227L (selected by DOR)): 6.3 ± 2 nM; IC50 [6, 19]: < 5.4 nM; IC50 ([6]; L100I/K103N): 5.4 ± 0.35 nM |
| Cc1cc(/C=C/C#N)cc(C)c1Nc1nc(Nc2ccc(C(F)(F)F)cc2)c2nc[nH]c2n1 [compound 15] | < 7 | < 2 |  | < 7 | < 2 | 9 | 4 | 1.5 ± 0.31 |  | > 100 |  | 2.6 ± 0.17 | < 2 | 50.2 | 30 | 0.35 ± 0.05 | 0.77 ± 0.19 | < 7 | 6.3 ± 1.3 | < 6 | IC50 [6, 19]: 15.5 nM |
| Cc1cc(/C=C/C#N)cc(C)c1Nc1ncc2ncn(-c3ccc(C#N)cc3)c2n1 [compound 26] |  |  | 8 |  | 3 |  | 4 | 12.9 | < 2 | > 100 |  | 46.2 ± 11.1 | 6 | > 100 |  | 2.1 | 2.2 |  |  | 28.8 ± 1.1 | IC50 [2, 16]: 7.3 ± 1.8 nM; IC50 [5, 17]: 24.5 ± 4.8 nM; IC50 [6, 19]: > 100 nM |
| Cc1cc(/C=C/C#N)cc(C)c1-n1cnc2cnc(Nc3ccc(C#N)cc3)nc21 [compound 27] | < 7 |  | 5 | < 7 | < 2 | 69 | 2 | 2.1 ± 0.93 | 4 | 16.6 | 29 | 2.2 ± 1.2 | 4 | 23.1 | 40 | 0.1 ± 0.01 | 0.2 ± 0.1 | < 7 | 1.3 ± 0.14 | < 2.5 | IC50 [3, 18]: < 5 nM; IC50 ([3]; V106A/F227L (selected by DOR)): 2.9 ± 0.3 nM; IC50 [6, 19]: 39.8 nM |
